In data set [1] the target is T1, ARα2B (Homo sapiens, UniProt P18089).
T1 sequence (P18089 1-450): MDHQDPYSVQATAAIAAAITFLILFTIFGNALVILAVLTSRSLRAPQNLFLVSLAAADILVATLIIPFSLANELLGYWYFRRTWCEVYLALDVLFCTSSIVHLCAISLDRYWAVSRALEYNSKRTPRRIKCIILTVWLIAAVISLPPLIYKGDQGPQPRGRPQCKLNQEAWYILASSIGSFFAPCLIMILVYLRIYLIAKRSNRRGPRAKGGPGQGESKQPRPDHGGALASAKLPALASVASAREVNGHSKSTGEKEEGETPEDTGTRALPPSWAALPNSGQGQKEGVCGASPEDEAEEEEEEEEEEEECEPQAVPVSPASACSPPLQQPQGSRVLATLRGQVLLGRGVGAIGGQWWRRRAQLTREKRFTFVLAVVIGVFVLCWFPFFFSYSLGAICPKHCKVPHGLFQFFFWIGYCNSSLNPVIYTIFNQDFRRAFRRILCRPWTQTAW
In kind it is cell-based. Particulars: for activation of ARα2B: agonist mode; for antagonism of ARα2B: in the presence of 300 nM norepinephrine.

Data set [2] has as its system Female Swiss Webster mice. The experiment in a line: Open field test. In kind it is in vivo. Particulars: 40 mg kg−1 oral; 40 min after administration; n = 6.
Data set [3] has as its target T2, ARα2C (Homo sapiens, UniProt P18825).
T2 sequence (P18825 1-462): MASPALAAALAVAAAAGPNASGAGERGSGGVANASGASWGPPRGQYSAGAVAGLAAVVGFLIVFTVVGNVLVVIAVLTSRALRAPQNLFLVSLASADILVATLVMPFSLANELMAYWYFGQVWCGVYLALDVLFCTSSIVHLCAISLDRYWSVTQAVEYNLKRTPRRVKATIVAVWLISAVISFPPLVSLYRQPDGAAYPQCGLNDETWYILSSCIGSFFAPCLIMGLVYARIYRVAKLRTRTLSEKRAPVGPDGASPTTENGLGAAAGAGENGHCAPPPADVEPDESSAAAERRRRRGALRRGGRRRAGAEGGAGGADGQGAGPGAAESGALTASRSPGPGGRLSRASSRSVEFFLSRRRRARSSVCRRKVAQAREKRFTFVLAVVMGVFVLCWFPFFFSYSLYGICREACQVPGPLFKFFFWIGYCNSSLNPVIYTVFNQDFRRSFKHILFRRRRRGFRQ
The experiment in a line: GPCR Tango β-arrestin recruitment assay, ARα2C transfected HEK293. The following applies: for activation of ARα2C: agonist mode; for antagonism of ARα2C: in the presence of 300 nM norepinephrine. Format: cell-based. A general note: Recruitment of arrestin is a read-out of receptor activation apart from second messengers.

Data set [4] addresses T3, ARα2A (Homo sapiens, UniProt P08913).
T3 sequence (P08913 1-465): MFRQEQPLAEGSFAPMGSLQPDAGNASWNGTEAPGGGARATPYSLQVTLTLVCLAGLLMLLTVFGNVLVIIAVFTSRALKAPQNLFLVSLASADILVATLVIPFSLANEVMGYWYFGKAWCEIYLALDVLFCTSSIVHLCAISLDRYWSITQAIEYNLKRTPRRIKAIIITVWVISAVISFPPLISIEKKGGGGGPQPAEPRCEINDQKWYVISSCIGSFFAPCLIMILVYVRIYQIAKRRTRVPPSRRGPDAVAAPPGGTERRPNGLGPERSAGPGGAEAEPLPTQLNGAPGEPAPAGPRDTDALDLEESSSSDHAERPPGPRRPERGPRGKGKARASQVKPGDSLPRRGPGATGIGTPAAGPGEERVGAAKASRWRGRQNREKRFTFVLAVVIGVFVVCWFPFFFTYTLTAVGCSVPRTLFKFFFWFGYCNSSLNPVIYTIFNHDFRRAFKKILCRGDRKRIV
The experiment in a line: GPCR Tango β-arrestin recruitment assay, ARα2A transfected HEK293. In kind it is cell-based. The following applies: for activation of ARα2A: agonist mode; for antagonism of ARα2A: in the presence of 300 nM norepinephrine.

In data set [5] the target is T3, ARα2A. The experiment in a line: ARα2A radioligand. In kind it is binding.
The subject of data set [6] is Female Swiss Webster mice. The experiment in a line: Rotarod sensorimotor study. In kind it is in vivo. The following applies: 40 mg kg−1 oral; measured after 10, 30 and 60 minutes; n = 8. (In general: Falling from the rotarod earlier than controls is read as motor impairment.)
The subject of the next data set is HEK293 cells. The experiment in a line: Cell viability / cytotoxicity assay. In kind it is cell-based, human. Particulars: CellTiter-Glo, 18 h.
Data set [7] can be described thus: Pharmacokinetic study, blood and brain. Format: in vivo, mice. The following applies: 40 mg kg−1 oral.
For data set [8], the target named is T2, ARα2C. The experiment in a line: ARα2C radioligand. Format: binding.
The target in data set [9] is T1, ARα2B. The experiment in a line: ARα2B radioligand. Format: binding. Particulars: for inhibition at 10 µM: read-out: ARα2B binding (% inhibition at 10 μM).
A short description of data set [10]: Aqueous solubility, shake flask method. In kind it is physicochemical. Particulars: pH 7.4, PBS, 24 h.
Data set [11] has as its system mice. The following applies: cited from earlier work.
The test system of data set [12] is mice. The following applies: cited from earlier work. This is another data set of the same source.
The mark [13] stands for this setting: ARα2A binding Ki, competition with 3H-Rauwolscinein, concentration response.

Bounds are passed on as bounds.

As for `CC1N=C(c2ccccc2F)c2cc(Nc3ccccc3)ccc2NC1=O` (stereo not drawn) [Compound 2, 7-Anilino-5-(2-fluorophenyl)-3-methyl-1,3-dihydro-2H-1,4-benzodiazepin-2-one], at ARα2B [1], the “activation of ARα2B” value is recorded as “did not activate” and the “antagonism of ARα2B” value is given as “antagonized”. Besides, in [2], the “sedation (open field test)” value was “no sedation”. On ARα2C [3], the “activation of ARα2C” value is given as “did not activate” and the “antagonism of ARα2C” value is listed as “antagonized”. Also, at ARα2A [4], the “activation of ARα2A” value was “did not activate” and the “antagonism of ARα2A” value was “antagonized”. On ARα2A [5] (ARα2A Ki, rounded value), the Ki (commonly the equilibrium dissociation constant of an inhibitor or competing ligand from its target) came to 3900 nM. For the same molecule, at ARα2A [5] (setting [13]), the Ki turned out to be 3930 nM. In data set [6], the “sensorimotor inhibition on rotarod” value is on record as “did not observe any sensorimotor inhibition”. For the same molecule, the “Cytotoxicity LD50” value in the data set on HEK293 cells came to 100 ± 19 µM. Also, in data set [7] (mice), the oral availability result is reported as “orally available”. Moreover, the “blood : brain ratios” value in [7] (10, 30, 60 min) is “increased over time”. In data set [7] (as early as 10 min, n = 4), the “concentration in blood and brain” value was “appreciable concentration of 2 in blood and brain that exceeded the affinity of 2 for the target receptor”. Moreover, on ARα2C [8], the Ki stood at 1130 nM. In addition, at ARα2B [9], affinity was put at a Ki of 511 nM and the inhibition (as a rule, the drop in the measured response relative to a control, in per cent) at 10 µM stood at 90%. Further, on ARα2B [9] (from Ki values), the “selectivity for α2B over the α2A subtype” value came to 7.7 fold and the “selectivity for α2B over the α2C subtype” value amounted to 2.2 fold.

`CC1N=C(c2ccccc2F)c2cc(Nc3ccccc3F)ccc2NC1=O` (stereo not drawn) [Compound 14, 7-(2-Fluoroanilino)-5-(2-fluorophenyl)-3-methyl-1,3-dihydro-2H-1,4-benzodiazepin-2-one]: the inhibition constant Ki on ARα2A [5] (setting [13]) amounted to 2240 nM; at ARα2C [8] it was 2140 nM; on ARα2B [9], 1280 nM. Further, in the data set with HEK293 cells, the “Cytotoxicity LD50” value was 90 ± 27 µM. For the same molecule, the Aqueous solubility (as a rule, how much of the substance goes into solution per volume) in [10] is 26.0 ± 2.10 µM. Moreover, at ARα2B [9], the inhibition at 10 µM was found to be 82%.

On to `COc1ccccc1Nc1ccc2c(c1)C(c1ccccc1F)=NC(C)C(=O)N2` (stereo not drawn) [Compound 17, 5-(2-Fluorophenyl)-7-(2-methoxyanilino)-3-methyl-1,3-dihydro-2H-1,4-benzodiazepin-2-one], for which, at ARα2B [1], the “activation of ARα2B” value is “did not activate” and the “antagonism of ARα2B” value is recorded as “antagonized”. Besides, the “sedation (open field test)” value in data set [2] was “no sedation”. Besides, at ARα2C [3], the “activation of ARα2C” value was “did not activate” and the “antagonism of ARα2C” value is reported as “antagonized”. In addition, on ARα2A [4], the “activation of ARα2A” value was “did not activate” and the “antagonism of ARα2A” value is “antagonized”. The molecule further returned a Ki at ARα2A [5] (setting [13]) of 2050 nM. For the same molecule, in data set [6], the “sensorimotor inhibition on rotarod” value was “did not observe any sensorimotor inhibition”. Also, the “Cytotoxicity LD50” value in the data set with HEK293 cells worked out at 148 ± 12 µM. This molecule also yielded an inhibitory constant (Ki) on ARα2C [8] of 738 nM. Moreover, at ARα2B [9], the affinity corresponds to a Ki of 607 nM and the inhibition at 10 µM came to 91%.

As to `CC1N=C(c2ccccc2F)c2cc(NC(C)(C)C)ccc2NC1=O` (stereo not drawn) [Compound 25, 7-(tert-Butylamino)-5-(2-fluorophenyl)-3-methyl-1,3-dihydro-2H-1,4-benzodiazepin-2-one], the “Cytotoxicity LD50” value in the data set on HEK293 cells was greater than 300 µM. Further, the Aqueous solubility in data set [10] was 393.6 ± 10.40 µM. In addition, the inhibition at 10 µM at ARα2B [9] turned out to be 40%.

For the molecule `CCC1(c2cnc[nH]2)Cc2ccccc2C1` [atipamezole], the “locomotion (OFT)” value with mice [11] (1 mg kg−1) is reported as “did not modulate locomotion”.

Turning to `Cc1cccc([C@H](C)c2cnc[nH]2)c1C` [dexmedetomidine], the “ability of mice to stay on the rotating rod” value in the data set on mice [12] (i.p. doses of higher than 10 μg kg−1) is “reduced the ability of mice to stay on the rotating rod”. The “activity scores (OFT)” value in the data set on mice [11] (30 μg kg−1 (s.c.)) is on record as “significantly reduced the activity scores”.

In the case of `Cc1ccc(N(CC2=NCCN2)c2cccc(O)c2)cc1` [phentolamine], in the data set with mice [12] (4 mg kg−1 (i.p.)), the “ability of mice to complete a rotarod exercise” value is recorded as “do not usually alter the ability of mice to complete a rotarod exercise”.

(Values after publication PMC12495306 (RSC Medicinal Chemistry, 2025).)
